How the values were obtained:
[1] = molecular target: T1, Dd myosin-2 ΔSH3 (lacks residues 33–79) (Dictyostelium discoideum, UniProt P08799, DEL33-79); test: Direct binding to truncated construct; settings: construct lacks SH3-like β-barrel
T1 construct: Dd myosin-2 ΔSH3, a recombinant motor domain construct that lacks this subdomain; made in house

β-cardiac myosin = β-cardiac myosin (Sus scrofa, UniProt P79293); test: Steady-state basal and actin-activated Mg2+-ATPase (NADH-coupled assay); type: biochemical, Porcine
Sequence of β-cardiac myosin (P79293 1-810 limits assumed): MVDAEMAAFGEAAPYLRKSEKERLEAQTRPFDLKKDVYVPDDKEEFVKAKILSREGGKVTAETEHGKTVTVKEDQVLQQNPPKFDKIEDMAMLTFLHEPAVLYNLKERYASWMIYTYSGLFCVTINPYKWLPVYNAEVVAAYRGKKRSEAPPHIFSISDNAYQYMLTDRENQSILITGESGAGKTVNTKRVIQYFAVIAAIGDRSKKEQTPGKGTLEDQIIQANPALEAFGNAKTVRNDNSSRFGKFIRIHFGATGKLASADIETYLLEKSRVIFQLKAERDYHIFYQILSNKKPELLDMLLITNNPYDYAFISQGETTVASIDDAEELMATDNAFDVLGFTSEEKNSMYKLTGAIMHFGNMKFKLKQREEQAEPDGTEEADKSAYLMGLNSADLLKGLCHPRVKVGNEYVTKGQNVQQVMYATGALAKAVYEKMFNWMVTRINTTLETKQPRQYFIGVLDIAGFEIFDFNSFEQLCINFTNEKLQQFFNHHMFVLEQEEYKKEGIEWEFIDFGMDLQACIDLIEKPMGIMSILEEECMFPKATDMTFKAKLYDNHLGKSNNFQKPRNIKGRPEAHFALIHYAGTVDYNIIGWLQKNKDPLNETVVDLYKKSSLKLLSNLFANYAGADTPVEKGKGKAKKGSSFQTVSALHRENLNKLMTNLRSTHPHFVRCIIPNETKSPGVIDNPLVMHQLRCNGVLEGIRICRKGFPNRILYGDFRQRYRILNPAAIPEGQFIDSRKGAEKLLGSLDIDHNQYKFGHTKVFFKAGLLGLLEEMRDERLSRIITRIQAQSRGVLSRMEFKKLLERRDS
Protocol: Rabbit fast skeletal muscle heavy meromyosin (HMM) was prepared as described by [Margossian and Lowey (1982)]. Porcine β-cardiac myosin was prepared essentially as described by [Pant et al. (2009)] and [Jacques et al. (2008)] and further purified by gel filtration. S1 and HMM fragments were produced by proteolytic digestion of the full-length proteins with 0.05 mg/ml papain (10 min, 25°C) for S1 and with 0.1 mg/ml TLCK-treated α-chymotrypsin (15 min, 25°C) for HMM. Reactions were stopped with specific protease inhibitors for papain (10 µM E−64) and chymotrypsin (10 µM chymostatin, 1 mM benzamidine). Proteolytic fragments were further purified by actin-coprecipitation. Pellets were washed twice and myosin was extracted from the pellets using ATP containing buffer. Gel filtration was used to further increase purity of myosin S1 and HMM fragments. His-tagged motor domain constructs of Dd myosin-2, Dd myosin-1B, Dd myosin-1C, Dd myosin-1D, Dd myosin-1E, Dd myosin-5b fused to two Dd α-actinin repeats substituting the light-chain binding domains ([Anson et al., 1996]) were expressed in Dd AX3-ORF + cells and purified by Ni^2+-chelate affinity chromatography ([Manstein and Hunt, 1995]).
Basal and actin-activated Mg^2+-ATPase activities were measured using the NADH-coupled assay described previously ([Furch et al., 1998]) adapted for higher throughput screens for a temperature controlled plate reader (Multiscan FC, Thermo Scientific, Waltham, MA) at 25°C. […] Control measurements were carried out in the absence of drug, as well as in the presence of according concentrations of the non-binding (−)-enantiomer EMD 57439 to account for possible absorption effects. […] Data points are mean values from 3 to 5 independent experiments. Error bars indicate standard deviations.

[2] = molecular target: T2, β-cardiac myosin motor domain (Sus scrofa, UniProt P79293); test: Melting temperature by circular dichroism at 222 nm; parameters: species or system Porcine; settings: nucleotide-free, low salt, 100 µM (saturating) EMD 57033
T2 construct: Melting curves of the β-cardiac myosin motor domain as determined by circular dichroism spectroscopy at 222 nm; from tissue; host or cells: porcine cardiac muscle
T2 sequence (P79293 1-843 limits assumed): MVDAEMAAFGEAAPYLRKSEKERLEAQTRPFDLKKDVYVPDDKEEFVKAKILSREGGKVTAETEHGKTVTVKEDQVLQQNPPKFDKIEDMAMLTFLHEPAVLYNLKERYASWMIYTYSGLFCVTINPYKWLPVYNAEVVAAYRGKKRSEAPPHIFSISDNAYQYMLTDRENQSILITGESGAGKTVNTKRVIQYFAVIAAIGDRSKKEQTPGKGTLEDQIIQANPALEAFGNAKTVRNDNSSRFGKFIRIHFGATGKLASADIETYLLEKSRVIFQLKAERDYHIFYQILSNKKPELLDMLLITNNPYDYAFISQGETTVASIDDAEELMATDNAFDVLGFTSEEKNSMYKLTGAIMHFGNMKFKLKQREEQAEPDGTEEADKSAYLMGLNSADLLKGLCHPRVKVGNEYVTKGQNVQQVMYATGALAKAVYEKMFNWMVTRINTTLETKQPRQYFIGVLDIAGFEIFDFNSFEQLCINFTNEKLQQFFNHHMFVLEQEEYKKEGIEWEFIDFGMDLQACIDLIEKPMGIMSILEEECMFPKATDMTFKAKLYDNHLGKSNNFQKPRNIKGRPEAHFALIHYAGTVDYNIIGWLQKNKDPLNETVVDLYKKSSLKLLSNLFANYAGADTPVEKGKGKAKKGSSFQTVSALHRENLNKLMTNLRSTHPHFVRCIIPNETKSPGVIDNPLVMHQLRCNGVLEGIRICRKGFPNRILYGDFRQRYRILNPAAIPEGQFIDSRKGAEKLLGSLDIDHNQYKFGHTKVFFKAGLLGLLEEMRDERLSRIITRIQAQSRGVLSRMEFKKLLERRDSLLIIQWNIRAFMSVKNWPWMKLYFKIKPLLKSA
Protocol: Circular dichroism and differential static light scattering experiments were performed to determine Tm.
Protein solutions were diluted to a concentration of 0.3 mg/ml in a buffer containing 5 mM KPi pH 7.5, 15 mM KCl. Denaturation of β-cardiac myosin was measured by monitoring the temperature-dependent changes of ellipticity at 222 nm in a temperature controlled π*-180 Spectrometer equipped with a circular dichroism unit (Applied Photophysics, Leatherhead, UK). Measurements were performed in a 0.3-cm path length Quartz cuvette with a temperature gradient of 1°C min^−1. The transition midpoint of the unfolding reaction was calculated by fitting a Boltzmann function to the experimental data. Prior to measurements, the storage buffer of β-cardiac myosin that contains DTT and sucrose were exchanged using PD MiniTrap G-25 (GE Healthcare, Little Chalfont, UK) size exclusion columns equilibrated with CD Buffer (5 mM KPi pH 7.5, 15 mM KCl).

[3] = molecular target: T3, Dd myosin-5b motor domain (Dictyostelium discoideum, UniProt P54697); test: Steady-state basal and actin-activated Mg2+-ATPase (NADH-coupled assay); type: biochemical
T3 construct: Dd myosin-5b motor domain; His tag; made in house; host or cells: Dictyostelium discoideum AX3-ORF+ cells
T3 sequence (P54697 1-821 limits assumed): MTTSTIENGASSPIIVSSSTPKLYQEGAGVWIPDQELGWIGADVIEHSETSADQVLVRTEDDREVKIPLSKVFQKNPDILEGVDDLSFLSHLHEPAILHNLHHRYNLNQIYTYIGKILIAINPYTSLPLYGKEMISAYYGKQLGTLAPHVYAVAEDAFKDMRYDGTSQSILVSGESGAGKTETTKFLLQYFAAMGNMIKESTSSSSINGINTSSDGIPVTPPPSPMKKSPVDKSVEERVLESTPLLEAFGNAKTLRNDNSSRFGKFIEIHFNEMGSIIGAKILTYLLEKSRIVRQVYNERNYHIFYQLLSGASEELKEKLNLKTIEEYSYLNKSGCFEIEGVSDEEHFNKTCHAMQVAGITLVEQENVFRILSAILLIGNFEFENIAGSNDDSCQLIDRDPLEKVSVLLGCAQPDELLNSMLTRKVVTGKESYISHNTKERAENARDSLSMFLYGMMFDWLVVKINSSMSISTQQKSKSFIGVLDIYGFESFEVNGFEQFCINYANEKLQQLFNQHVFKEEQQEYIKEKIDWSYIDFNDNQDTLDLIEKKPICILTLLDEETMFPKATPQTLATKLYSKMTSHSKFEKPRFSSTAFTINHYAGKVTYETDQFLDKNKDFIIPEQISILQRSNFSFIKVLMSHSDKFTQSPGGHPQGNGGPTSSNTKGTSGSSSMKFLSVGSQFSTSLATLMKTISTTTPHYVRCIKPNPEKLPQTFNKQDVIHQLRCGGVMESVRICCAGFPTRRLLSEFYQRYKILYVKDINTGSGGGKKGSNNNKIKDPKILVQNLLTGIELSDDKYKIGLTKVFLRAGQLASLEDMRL
Protocol: Proteolytic fragments were further purified by actin-coprecipitation.
Basal and actin-activated Mg^2+-ATPase activities were measured using the NADH-coupled assay described previously ([Furch et al., 1998]) adapted for higher throughput screens for a temperature controlled plate reader (Multiscan FC, Thermo Scientific, Waltham, MA) at 25°C. EMD 57033 was added to the reaction mixture in the absence of nucleotide and incubated before the reaction was started by the addition of ATP. Control measurements were carried out in the absence of drug, as well as in the presence of according concentrations of the non-binding (−)-enantiomer EMD 57439 to account for possible absorption effects. […] Data points are mean values from 3 to 5 independent experiments. Error bars indicate standard deviations.

T1 sequence (P08799 other isoform, or with tags, fused parts or gaps DEL33-79): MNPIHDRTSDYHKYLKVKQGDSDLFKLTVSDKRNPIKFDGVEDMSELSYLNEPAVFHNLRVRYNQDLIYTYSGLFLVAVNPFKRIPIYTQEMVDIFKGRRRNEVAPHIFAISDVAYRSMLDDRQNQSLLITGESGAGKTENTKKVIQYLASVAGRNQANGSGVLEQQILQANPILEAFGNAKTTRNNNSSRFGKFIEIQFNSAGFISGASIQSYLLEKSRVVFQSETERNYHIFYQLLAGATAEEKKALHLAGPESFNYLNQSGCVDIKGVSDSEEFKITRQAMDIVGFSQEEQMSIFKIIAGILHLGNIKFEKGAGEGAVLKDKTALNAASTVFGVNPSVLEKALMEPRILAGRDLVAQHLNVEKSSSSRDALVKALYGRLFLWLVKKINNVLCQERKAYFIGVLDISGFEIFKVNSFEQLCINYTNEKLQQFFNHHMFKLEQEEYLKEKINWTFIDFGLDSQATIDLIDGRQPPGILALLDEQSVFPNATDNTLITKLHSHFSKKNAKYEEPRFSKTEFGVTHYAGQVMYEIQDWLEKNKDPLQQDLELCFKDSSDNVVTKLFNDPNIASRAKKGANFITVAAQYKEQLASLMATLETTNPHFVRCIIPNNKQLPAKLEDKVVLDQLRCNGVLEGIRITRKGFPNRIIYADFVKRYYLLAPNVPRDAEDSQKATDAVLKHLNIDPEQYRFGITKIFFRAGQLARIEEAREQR

COc1ccc(C(=O)N2CCCc3cc(C4=NNC(=O)SC4C)ccc32)cc1OC (centres unmarked) [EMD 57033] was tested, and the Direct binding [1] was “neither binding”, the “Normalized maximal ATPase activation (basal)” value (β-cardiac myosin) was 1.5 and the “Effect on KM,ATP (Lineweaver–Burk plot)” value (β-cardiac myosin; 25 µM EMD 57033) was “remains unaffected”. For the same compound, the “kcat increase (Lineweaver–Burk plot)” value (β-cardiac myosin; 25 µM EMD 57033) was 1.5 fold, the “kcat ∼Change (−fold), increase” value (β-cardiac myosin; 25 µM EMD 57033 vs control) was 1.6 fold and the “kcat/KM(Actin) (initial slope) ∼Change (−fold)” value (β-cardiac myosin; 25 µM EMD 57033 vs control) was ~15.8 fold. For the same compound, the “Normalized maximal ATPase activation (with 30 µM actin)” value (β-cardiac myosin; 30 µM actin) was 2.5, the “kcat (actin-activated ATPase)” value (β-cardiac myosin; in presence of 25 µM EMD 57033) was 0.19 ± 0.02 s⁻¹ and the “kcat/KM(Actin), calculated ratio of both values” (β-cardiac myosin; in presence of 25 µM EMD 57033) was 0.0528 µM^v1 s^−1. For the same compound, the “Basal ATP turnover relative to that expected for 100% active protein” value (β-cardiac myosin; saturating EMD 57033) was 1.5 fold, the AC50 (β-cardiac myosin; β-Cardiac myosin-2 (S1, full-length), read-out: AC50 ATPase (half-maximal activation)) was 7 µM and the “ATPase activity in excess of the value expected for a 100% active population of myosin heads” value (β-cardiac myosin; β-cardiac myosin and Dd myosin-2 preparations together) was 30–50%. The “Tm (melting temperature)” value [2] was 53.6 ± 1.9 °C, the AC50 [3] was 35.4 µM and the “Activation potency relative to β-cardiac myosin (weaker)” value [3] was “fivefold”. The “Normalized maximal ATPase activation (basal)” value [3] was 1.4 and the “Normalized maximal ATPase activation (with 30 µM actin)” value ([3]; 30 µM actin) was 1.6.

Source: article PMC3920478, “Small molecule-mediated refolding and activation of myosin motor function” (eLife, 2014)
